The record followed here is ChEMBL document CHEMBL1143187, “Synthesis of and evaluation of lipid A modification by 4-substituted 4-deoxy arabinose analogs as potential inhibitors of bacterial polymyxin resistance” (Bioorg Med Chem Lett, 2008).

For experiment [1], the system named is Escherichia coli. Nature of the experiment: Inhibition of Escherichia coli ArnA upto 100 uM.
Experiment [2] deals with Escherichia coli. Nature of the experiment: Inhibition of Escherichia coli ArnB upto 100 uM.
Experiment [3] deals with Undecaprenyl phosphate-alpha-4-amino-4-deoxy-L-arabinose arabinosyl transferase (Salmonella typhimurium (strain LT2 / SGSC1412 / ATCC 700720)) (UniProt O52327). Nature of the experiment: Inhibition of PmrK/ArnT in Salmonella Typhimurium JSG435 membranes assessed as effect on transfer of aminoarabinose tp lipid A. Particulars: Salmonella enterica subsp. enterica serovar Typhimurium.

Calls of active or inactive are those of the source. The calls are words filed in the database; no cut-off is given here.

Turning to `CC(=O)O[C@@H]1[C@@H](OC(C)=O)[C@@H](OP(=O)(O)OP(=O)(O)OC[C@H]2O[C@@H](n3ccc(=O)[nH]c3=O)[C@H](O)[C@@H]2O)OC[C@@H]1N=[N+]=[N-].CCCCCCCCCN`, the result in experiment [1] and in experiment [2] was Active.
For `COP(=O)(N[C@H]1CO[C@H](OP(=O)(O)O)[C@H](OC(C)=O)[C@H]1OC(C)=O)OC`, the result in experiment [1] and in experiment [2] was Active.
As for `COP(=O)(N[C@H]1CO[C@H](OP(=O)(OCc2ccccc2)OCc2ccccc2)[C@H](OC(C)=O)[C@H]1OC(C)=O)OC`, the result in experiment [1] and in experiment [2] was Active.
With `CCCCCCCCN.CCOP(=O)(Cc1ccccc1)N[C@H]1CO[C@H](OP(=O)(O)OP(=O)(O)OC[C@H]2O[C@@H](n3ccc(=O)[nH]c3=O)[C@H](O)[C@@H]2O)[C@H](OC(C)=O)[C@H]1OC(C)=O` (stereo partly drawn), the result in experiment [1] and in experiment [2] was Active.
`CC(=O)O[C@@H]1[C@@H](OC(C)=O)[C@@H](OP(=O)(O)O)OC[C@@H]1N=[N+]=[N-]`: the outcome in experiment [1] and in experiment [2] was Active.
With `CC(=O)OC1OC[C@H](N=[N+]=[N-])[C@H](OC(C)=O)[C@H]1OC(C)=O` (stereo partly drawn), the outcome in experiment [1], in experiment [2] and in experiment [3] was Active.
